Results on 32 compounds are retold here after patent US7538123B2, “Indole derivative having piperidine ring” (Eisai R & D Management Co., Ltd., priority 2004, dated 2009).

The structures appear in SMILES notation.

The target of the first assay is T1, serotonin 1A receptor (Mus musculus, UniProt Q64264).
T1 construct: into the rectum of CD-1 (ICR) male mice (25-45 g); from tissue; host or cells: living CD-1 (ICR) male mice (whole animal)
T1 sequence (Q64264 1-421): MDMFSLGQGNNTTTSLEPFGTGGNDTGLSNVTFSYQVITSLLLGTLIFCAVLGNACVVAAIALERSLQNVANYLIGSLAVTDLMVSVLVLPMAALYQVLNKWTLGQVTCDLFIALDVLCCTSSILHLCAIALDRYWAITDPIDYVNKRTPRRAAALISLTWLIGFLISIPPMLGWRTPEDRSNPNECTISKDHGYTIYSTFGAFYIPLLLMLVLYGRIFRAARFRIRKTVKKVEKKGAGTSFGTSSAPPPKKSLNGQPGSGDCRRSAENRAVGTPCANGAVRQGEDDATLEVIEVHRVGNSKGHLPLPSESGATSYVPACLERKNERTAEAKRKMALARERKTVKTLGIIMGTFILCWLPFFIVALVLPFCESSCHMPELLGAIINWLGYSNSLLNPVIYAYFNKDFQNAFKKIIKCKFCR
The assay can be described thus: Antagonistic effect on serotonin 1A receptor agonist-induced hypothermia in mouse. Particulars: sc. It is filed as in vivo. The method, then:
(1) A thermistor probe was inserted at a depth of approximately 2 cm into the rectum of CD-1 (ICR) male mice (25-45 g), so as to measure the body temperature thereof. Body temperature is decreased by subcutaneous administration of serotonin 1A receptor agonist (8-hydroxy-dipropylaminotetralin) 0.5 mg/kg. Since a serotonin 1A antagonist inhibits such action, the antagonistic effect of a test substance to a serotonin 1A receptor was evaluated using the inhibitory effect of the hypothermia as an index. A test substance was administered 15 minutes before the administration of the serotonin 1A agonist. A serotonin 1A partial agonist alone decreases the body temperature, depending on the degree of the agonistic action thereof. In addition, it has a weak antagonistic effect on 8-hydroxy-dipropylaminotetralin-induced hypothermia. (2) Results
In the case of `COc1ccc2c(C)noc2c1CCN1CCC(n2ccc3ccc(C(N)=O)cc32)CC1` [Compound 1, 1-{1-[2-(6-methoxy-3-methylbenz[d]isoxazol-7-yl)ethyl]piperidin-4-yl}-1H-indole-6-carboxamide], it took a dose of 0.3 mg/kg to reach the 50% effect level (ED50).

In the case of `CNC(=O)c1ccc2ccn(C3CCN(CCc4c(OC)ccc5c4OC(C)(C)CC5O)CC3)c2c1` (centres unmarked) [Compound 48, 1-{1-[2-(4-hydroxy-7-methoxy-2,2-dimethylchroman-8-yl)ethyl]piperidin-4-yl}-N-methyl-1H-indole-6-carboxamide], the ED50 was 0.06 mg/kg.

`COc1cc2cccnc2cc1CCN1CCC(n2ccc3ccc(C(N)=O)cc32)CC1` [Compound 51, 1-{1-[2-(6-methoxyquinolin-7-yl)ethyl]piperidin-4-yl}-1H-indole-6-carboxamide] had a 50% effective dose (ED50) of 0.66 mg/kg.

Still in this assay, the particulars now being: sc, 15 minutes before 8-hydroxy-dipropylaminotetralin 0.5 mg/kg sc, inhibition of hypothermia, CD-1 (ICR) male mice, read-out: ED50.
Take `COc1cc2onc(C)c2cc1CCN1CCC(n2ccc3ccc(C(N)=O)cc32)CC1` [Compound 2, 1-{1-[2-(6-methoxy-3-methylbenzo[d]isoxazol-5-yl)ethyl]piperidin-4-yl}-1H-indole-6-carboxamide]: the ED50 came out at 0.4 mg/kg.

Take `COc1ccc2nc(C)oc2c1CCN1CCC(n2ccc3ccc(C(N)=O)cc32)CC1` [Compound 3, 1-{1-[2-(6-methoxy-2-methylbenzoxazol-7-yl)ethyl]piperidin-4-yl}-1H-indole-6-carboxamide]: the 50% effective dose (ED50) is 0.18 mg/kg.

In the case of `COc1cc2oc(C)nc2cc1CCN1CCC(n2ccc3ccc(C(N)=O)cc32)CC1` [Compound 4, 1-{1-[2-(6-methoxy-2-methylbenzoxazol-5-yl)ethyl]piperidin-4-yl}-1H-indole-6-carboxamide], the ED50 came to 0.1 mg/kg.

`CCc1nc2ccc(OC)c(CCN3CCC(n4ccc5ccc(C(N)=O)cc54)CC3)c2o1` [Compound 5]: the ED50 stood at 0.24 mg/kg.

Regarding `CCc1nc2cc(CCN3CCC(n4ccc5ccc(C(N)=O)cc54)CC3)c(OC)cc2o1` [Compound 6, 1-{1-[2-(2-ethyl-6-methoxybenzoxazol-5-yl)ethyl]piperidin-4-yl}-1H-indole-6-carboxamide], the 50% effective dose (ED50) turned out to be 0.35 mg/kg.

Take `COc1ccc2oc(C)nc2c1CCN1CCC(n2ccc3ccc(C(N)=O)cc32)CC1` [Compound 7, 1-{1-[2-(5-methoxy-2-methylbenzoxazol-4-yl)ethyl]piperidin-4-yl}-1H-indole-6-carboxamide]: the ED50 was 0.38 mg/kg.

As to `COc1cc2nc(C)oc2cc1CCN1CCC(n2ccc3ccc(C(N)=O)cc32)CC1` [Compound 8, 1-{1-[2-(5-methoxy-2-methylbenzoxazol-6-yl)ethyl]piperidin-4-yl}-1H-indole-6-carboxamide], the 50% effective dose (ED50) came out at 0.07 mg/kg.

For the compound `COc1cc2c(cc1CCN1CCC(n3ccc4ccc(C(N)=O)cc43)CC1)C(=O)N(C)CCO2` [Compound 9, 1-{1-[2-(8-methoxy-4-methyl-5-oxo-2,3,4,5-tetrahydrobenzo[f][1,4]oxazepin-7-yl)ethyl]piperidin-4-yl}-1H-indole-6-carboxamide], the median effective dose (ED50) was 0.3 mg/kg.

For `CNC(=O)c1ccc2ccn(C3CCN(CCc4c(OC)ccc5c4OC(C)(C)CC5=O)CC3)c2c1` [Compound 20, 1-{1-[2-(7-methoxy-2,2-dimethyl-4-oxochroman-8-yl)ethyl]piperidin-4-yl}-N-methyl-1H-indole-6-carboxamide], the 50% effective dose (ED50) came to 0.03 mg/kg.

`COc1ccc2c(c1CCN1CCC(n3ccc4ccc(C(N)=O)cc43)CC1)OC(C)(C)CC2=O` [Compound 22, 1-{1-[2-(7-methoxy-2,2-dimethyl-4-oxochroman-8-yl)ethyl]piperidin-4-yl}-1H-indole-6-carboxamide]: the ED50 is 0.1 mg/kg.

In the case of `COc1cc2c(cc1CCN1CCC(n3ccc4ccc(C(N)=O)cc43)CC1)C(=O)CC(C)(C)O2` [Compound 24, 1-{1-[2-(7-methoxy-2,2-dimethyl-4-oxochroman-6-yl)ethyl]piperidin-4-yl}-1H-indole-6-carboxamide], the ED50 is 0.3 mg/kg.

Take `COc1ccc2c(c1CCN1CCC(n3ccc4ccc(C(N)=O)cc43)CC1)CCC2=O` [Compound 25, 1-{1-[2-(5-methoxy-1-oxoindan-4-yl)ethyl]piperidin-4-yl}-1H-indole-6-carboxamide]: the ED50 worked out at 0.1 mg/kg.

In the case of `COc1cc2c(cc1CCN1CCC(n3ccc4ccc(C(N)=O)cc43)CC1)C(=O)CC2` [Compound 26, 1-{1-[2-(6-methoxy-3-oxoindan-5-yl)ethyl]piperidin-4-yl}-1H-indole-6-carboxamide], the 50% effective dose (ED50) came out at 0.25 mg/kg.

Regarding `COc1ccc2sc(C)nc2c1CCN1CCC(n2ccc3ccc(C(N)=O)cc32)CC1` [Compound 27, 1-{1-[2-(5-methoxy-2-methylbenzothiazol-4-yl)ethyl]piperidin-4-yl}-1H-indole-6-carboxamide], the median effective dose (ED50) was 0.42 mg/kg.

Consider `COc1cc2nc(C)sc2cc1CCN1CCC(n2ccc3ccc(C(N)=O)cc32)CC1` [Compound 28, 1-{1-[2-(5-methoxy-2-methylbenzothiazol-6-yl)ethyl]piperidin-4-yl}-1H-indole-6-carboxamide], for which the median effective dose (ED50) amounted to 0.02 mg/kg.

As for `COc1ccc2ncccc2c1CCN1CCC(n2ccc3ccc(C(N)=O)cc32)CC1` [Compound 30, 1-{1-[2-(6-methoxyquinolin-5-yl)ethyl]piperidin-4-yl}-1H-indole-6-carboxamide], the ED50 turned out to be 0.62 mg/kg.

`COc1cc2c(cc1CCN1CCC(n3ccc4ccc(C(N)=O)cc43)CC1)OCCO2` [Compound 31, 1-{1-[2-(7-methoxy-2,3-dihydrobenz[1,4]dioxin-6-yl)ethyl]piperidin-4-yl}-1H-indole-6-carboxamide]: the median effective dose (ED50) is 0.04 mg/kg.

For `COc1ccc2c(c1CCN1CCC(n3ccc4ccc(C(N)=O)cc43)CC1)OCCO2` [Compound 32, 1-{1-[2-(6-methoxy-2,3-dihydrobenz[1,4]dioxin-5-yl)ethyl]piperidin-4-yl}-1H-indole-6-carboxamide], the median effective dose (ED50) was 0.04 mg/kg.

Consider `COc1cc2c(cc1CCN1CCC(n3ccc4ccc(C(N)=O)cc43)CC1)C(=O)N(C)CC2` [Compound 33, 1-{1-[2-(6-methoxy-2-methyl-1-oxo-1,2,3,4-tetrahydroisoquinolin-7-yl)ethyl]piperidin-4-yl}-1H-indole-6-carboxamide], for which the ED50 amounted to 0.12 mg/kg.

On to `COc1ccc2c(c1CCN1CCC(n3ccc4ccc(C(N)=O)cc43)CC1)CCN(C)C2=O` [Compound 34, 1-(1-(2-(6-methoxy-2-methyl-1-oxo-1,2,3,4-tetrahydroisoquinolin-5-yl)ethyl)piperidin-4-yl)-1H-indole-6-carboxamide], for which the median effective dose (ED50) is 0.37 mg/kg.

In the case of `COc1ccc2c(=O)ccoc2c1CCN1CCC(n2ccc3ccc(C(N)=O)cc32)CC1` [Compound 35, 1-{1-[2-(7-methoxy-4-oxo-4H-chromen-8-yl)ethyl]piperidin-4-yl}-1H-indole-6-carboxamide], the ED50 came out at 0.2 mg/kg.

For the compound `COc1ccc2c(=O)c(C)c(C)oc2c1CCN1CCC(n2ccc3ccc(C(N)=O)cc32)CC1` [Compound 36, 1-{1-[2-(7-methoxy-2,3-dimethyl-4-oxo-4H-chromen-8-yl)ethyl]piperidin-4-yl}-1H-indole-6-carboxamide], the ED50 was found to be 0.2 mg/kg.

As to `CNC(=O)c1ccc2ccn(C3CCN(CCc4cc5c(cc4OC)CCN(C)C5=O)CC3)c2c1` [Compound 38, 1-{1-[2-(6-methoxy-2-methyl-1-oxo-1,2,3,4-tetrahydroisoquinolin-7-yl)ethyl]piperidin-4-yl}-N-methyl-1H-indole-6-carboxamide], the median effective dose (ED50) came to 0.19 mg/kg.

Turning to `COc1ccc2ccccc2c1CCN1CCC(n2ccc3ccc(C(N)=O)cc32)CC1` [Compound 44, 1-{1-[2-(2-methoxynaphthalen-1-yl)ethyl]piperidin-4-yl}-1H-indole-6-carboxamide], the ED50 is 0.41 mg/kg.

Turning to `COc1cc2ccccc2cc1CCN1CCC(n2ccc3ccc(C(N)=O)cc32)CC1` [Compound 45, 1-{1-[2-(3-methoxynaphthalen-2-yl)ethyl]piperidin-4-yl}-1H-indole-6-carboxamide], the 50% effective dose (ED50) was found to be 0.26 mg/kg.

As for `COc1ccc2c(c1CCN1CCC(n3ccc4ccc(C(N)=O)cc43)CC1)OCCC2O` (centres unmarked) [Compound 46, 1-{1-[2-(4-hydroxy-7-methoxychroman-8-yl)ethyl]piperidin-4-yl}-1H-indole-6-carboxamide], the median effective dose (ED50) was 0.3 mg/kg.

Regarding `COc1ccc2c(c1CCN1CCC(n3ccc4ccc(C(N)=O)cc43)CC1)OCCC2=O` [Compound 47, 1-{1-[2-(7-methoxy-4-oxochroman-8-yl)ethyl]piperidin-4-yl}-1H-indole-6-carboxamide], the ED50 stood at 0.21 mg/kg.

As for `COc1ccc2c(c1CCN1CCC(n3ccc4ccc(C(N)=O)cc43)CC1)CCC2O` (centres unmarked) [Compound 49, 1-{1-[2-(1-hydroxy-5-methoxyindan-4-yl)ethyl]piperidin-4-yl}-1H-indole-6-carboxamide], the ED50 is 0.28 mg/kg.

Consider `COc1cc2c(cc1CCN1CCC(n3ccc4ccc(C(N)=O)cc43)CC1)N(C(C)=O)CCC2` [Compound 52, 1-{1-[2-(1-acetyl-6-methoxy-1,2,3,4-tetrahydroquinolin-7-yl)ethyl]piperidin-4-yl}-1H-indole-6-carboxamide], for which the 50% effective dose (ED50) is 0.5 mg/kg.

By ED50 is commonly meant the midpoint of the dose-response relation.
